Consider three molecules from patent publication EP4327830A1 (priority 2022, dated 2024).

The target of assay [1] is protein phosphatase-1 catalytic subunit (a-Isoform from rabbit, Sigma-Aldrich) (Oryctolagus cuniculus, UniProt P62139). The class given is biochemical. Conditions: read-out: IC50_PPI + SE.
A further assay relates to HEK293 OATP1B1+. Conditions: for IC50: read-out: IC50_cytotox on OATP1B1 expressing cell line + SE.
In a further assay the test system is HEK293 OATP1B3+. To be noted: for IC50: read-out: IC50_cytotox on OATP1B3 expressing cell line + SE.
Assay [2] has as its target type 1 protein phosphatase. Conditions: cited from earlier work.
In assay [3] the test system is type 2A protein phosphatases. To be noted: cited from earlier work.

Chain of protein phosphatase-1 catalytic subunit (a-Isoform from rabbit, Sigma-Aldrich) (P62139 whole entry, looked up, canonical isoform): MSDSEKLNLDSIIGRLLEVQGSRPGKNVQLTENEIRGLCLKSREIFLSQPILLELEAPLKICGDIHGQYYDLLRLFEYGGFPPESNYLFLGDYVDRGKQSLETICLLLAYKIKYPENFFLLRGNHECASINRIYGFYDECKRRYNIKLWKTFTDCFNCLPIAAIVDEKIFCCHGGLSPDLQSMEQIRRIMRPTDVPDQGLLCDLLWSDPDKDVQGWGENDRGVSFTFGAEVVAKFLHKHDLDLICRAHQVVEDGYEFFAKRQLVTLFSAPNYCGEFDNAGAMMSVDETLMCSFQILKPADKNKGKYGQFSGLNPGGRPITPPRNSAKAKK

Regarding `C=C1C(=O)N[C@H](C)C(=O)N[C@@H](CCCN=[N+]=[N-])C(=O)N[C@@H](C(=O)O)CC(=O)N[C@@H](CCCNC(=N)N)C(=O)N[C@@H](/C=C/C(C)=C/[C@H](C)[C@H](Cc2ccccc2)OC)[C@H](C)C(=O)N[C@@H](C(=O)O)CCC(=O)N1C` [MC-(Aznva)R, cyclo(D-Ala-Aznva-D-Asp-R-Adda-D-Glu-Mdha)], the IC50 in assay [1] is 46.7 ± 9.2 nM. Further, in the assay on HEK293 OATP1B1+, the “Ratio of IC50_Cytotox OATP1B1/ IC50_PPI” value is listed as 0.52 and the IC50 was determined as 24.1 ± 11.5 nM. Moreover, in the assay with HEK293 OATP1B3+, the “Ratio of IC50_cytotox OATP1B3/ IC50_PPI” value amounted to 0.58 and the IC50 was determined as 27 ± 1.5 nM.
Consider microcystin-LR, for which the results for the IC50 in assay [2] and in assay [3] were 0.03 nM and 0.04 nM, respectively.
As to `C#CCOc1ccc(C[C@@H]2NC(=O)[C@@H](C)NC(=O)C(=C)N(C)C(=O)CC[C@H](C(=O)O)NC(=O)[C@@H](C)[C@H](/C=C/C(C)=C/[C@H](C)[C@H](Cc3ccccc3)OC)NC(=O)[C@H](CCCNC(=N)N)NC(=O)C[C@H](C(=O)O)NC2=O)cc1` [MC-(Prtyr)R, cyclo(D-Ala-Prtyr-D-Asp-R-Adda-D-Glu-Mdha)], the IC50 in assay [1] turned out to be 8.4 ± 5.4 nM. In the assay with HEK293 OATP1B1+, the “Ratio of IC50_Cytotox OATP1B1/ IC50_PPI” value was determined as 9.79 and the IC50 stood at 82.2 ± 4.5 nM. Also, in the assay with HEK293 OATP1B3+, the “Ratio of IC50_cytotox OATP1B3/ IC50_PPI” value was found to be 4.81 and the IC50 was 40.4 ± 36.6 nM.
